From US20050096349A1, “Methods to prevent or ameliorate medication-, procedure-or stress-induced cognitive and speech dysfunction and methods to optimize cognitive and speech functioning” (priority 2003, published 2005)

Tests used:
[1] = test system: feeling dull and having difficulty concentrating
[2] = test system: word finding difficulty; experiment: Example 1: case report, atomoxetine added for word finding difficulty on topiramate; assay type: in vivo, patient; details: for word finding (patient description): person on topiramate
From the text: (§1) Patient is a person with compulsive shopping (impulse control disorder, not otherwise specified), type II diabetes, and obesity. They have no other psychiatric disorders including mood or anxiety disorders.

[3] = test system: feeling "cloudy" and "disoriented"; experiment: Example 3: case report, atomoxetine added for feeling cloudy and disoriented on olanzapine, clonazepam, fiorinal; assay type: in vivo, patient
Method: Patient is a person with major depression, panic, generalized anxiety disorder, chronic headaches and fibromyalgia. They are on escitalopram 20 mg po qd, olanzapine 7.5 mg po qhs, clonazepam 0.5 mg po bid, and fiorinal prn. […] Atomoxetine was initiated at 18 mg po qd and increased to 25 mg po qd after 8 days.

[4] = test system: compulsive shopping (impulse control disorder, not otherwise specified); experiment: Example 1: case report, topiramate for compulsive shopping; assay type: in vivo, patient
From the text: as §1

SMILES: CNCC[C@@H](Oc1ccccc1C)c1ccccc1 [Atomoxetine, atomoxetine]
- improvement compared with 25 mg (patient description) ([1]; atomoxetine 40 mg po qd): did not have the same improvement as at 25 mg
- side effects ([1]; atomoxetine 40 mg po qd): felt dizzy and “spacy”
- concentration and side effects ([1]; atomoxetine alternating 25 mg and 40 mg po qd every other day): improved concentration without significant side effects
- tolerability of effective dose of alpraxolam (2-4 mg/day) ([1]; on atomoxetine alternating 25 mg and 40 mg po qd): without difficulties in concentration/cognitive functioning
- concentration and ability to work (patient description) ([1]; person on escitalopram 20 mg po qd and alprazolam, atomoxetine 25 mg po qd, within a few days): improved concentration and improved ability to work
- tolerability of higher topiramate dose ([2]; atomoxetine 40 mg po qd, tolerated for 2 months): could tolerate a topiramate dose of 100 mg without difficulty
- word finding (patient description) ([2]; atomoxetine 25 mg po qd, over the next month): mild improvement in word finding
- word finding (patient description) ([2]; atomoxetine 40 mg po qd, over the following month): noticeable improvement in their word finding
- duration of stable effect ([3]; atomoxetine 25 mg po qd): 2 months
- tolerability of other medications in terms of cognitive functioning ([3]; on atomoxetine 25 mg po qd): able to tolerate their other medications without difficulty in terms of cognitive functioning
- concentration, attention, focus (patient description) ([3]; person on escitalopram, olanzapine, clonazepam, fiorinal, atomoxetine 18 mg po qd increased to 25 mg po qd after 8 days): improved concentration, attention, and “focus”

SMILES: CC1(C)O[C@@H]2[C@@H](CO[C@@]3(COS(N)(=O)=O)OC(C)(C)O[C@@H]23)O1 [topiramate]
- weight ([4]; higher dosages of topiramate): decreased weight
- urges and control over shopping behaviors ([4]; person, topiramate dose slowly increased): decreased urges and improved control over their shopping behaviors
- cognitive side effect ([4]; topiramate increased to 75 mg po qd): word finding difficulty which persisted
